According to patent US11299515B2, “Optimized peptides for targeting human nerves and their use in image guided surgery, diagnostics and therapeutic” (The Regents of the University of California, priority 2017, dated 2022):
Residues, ends and D or L forms follow the SMILES beside them. *: point of attachment. Fluorescein(5-Mal) = O=C1OC2(c3ccc(O)cc3Oc3cc(O)ccc32)c2ccc(N3C(=O)CC(*)C3=O)cc21

Tested on: sciatic nerve
Assay type: in vivo, mice
Settings: 450 nmols i.v., SKH1 mice
Method: Either 150 or 450 nmoles of fluorescein labeled synthetic peptides were injected intravenously into mice. After a 2 hour waiting period for washout of nonspecific binding, mice were anesthetized and skin incisions were made over the dorsal surface of the hind legs to expose the sciatic nerve. Brightfield and fluorescent images were obtained with a dissecting microscope using Metamorph software (FIG. 1). Quantitation of fluorescence of nerves and adjacent non-nerve tissue was performed with Image J (FIG. 2). Peptides were also topically applied to human nerve sections. Nerves were freshly frozen in OTC prior to sectioning. Peptides were topically applied at concentration at 300 uM with images being shown for HNP401, HNP402, HNP404 and previous reported nerve binding peptides NP41 (FIG. 3)). Also shown are images for variants HNP301 ([…]) and NP124. NP713 was also tested and has not reported in a publication. NP713, is a derivative of NP41 with sequence […] that was enriched after 7 rounds of selection against mouse tissue, and was also found after 4 rounds of selection against human tissue. […] All D-amino acid controls for NP-41 and NP713 and non peptide conjugated carboxyfluorescein, are also shown. […] HNP401 was then tested for labeling of rat sciatic and rat prostate cavernosal nerve in-vivo. […] FIGS. 6 and 7 show in-vivo labeling of rat prostate cavernosal nerve with comparison to white light visualization.
Following anesthesia with intra-peritoneal injection of ketamine (80 mg/kg) and midazolam (40 mg/kg), FAM-NP41 or its variants were administered into mice retro-orbitally. After a washout period of 2-4 hours, the animals were anesthetized with ketamine (50 mg/ml) and xylazine (20 mg/ml). The bladder and prostate were exposed through a midline abdominal incision. The autonomic nerve along the cavernosal vessel in the prostate was imaged and recorded using a custom-made surgical imaging system. This system is a modified from Olympus MVX10 scope capable of hi-resolution fluorescence, RGB reflectance and realtime overlay with zoom from 0.6 to 5.7 cm field of view. Image) was used for quantitative analysis of nerve contrast for each peptide dye conjugate tested. Images of autonomic nerve in prostate were selected from the recorded files and magnified 300-400% prior to selection of ROI and measurement. Nerves and adjacent non-nerve tissues ROIs were hand-selected using polygonal selection tool at the same location from both of reflectance and fluorescence images. The mean and standard deviation of the pixel intensities within the selected areas were compared for nerves (mean=In, SD=σn) and adjacent background tissue (mean=Ib, SD=σb). Nerve to non-nerve contrast was calculated after background subtraction with formula |In−Ib|/(σn^2+σm^2)^0.5. For imaging the nerves in the prostate gland of male rats peptide dye conjugate were injected retro-orbitally. FAM-HNP401 was injected at a concentration of 13 mgs/kg followed by imaging after 15 minutes or alternatively a dose of 52 mgs/kg was used with imaging after 3 hours. Live animal surgery was performed under a ketamine-xylazine cocktail according to IACUC protocol. Sterile technique was used to expose the prostate; bladder was drained with a small syringe and sutured. The surgical field was washed with sterile saline prior to imaging. Mann-Whitney test was used to analyze data for both mice and rats to compare nerve intensity and nerve to non-nerve contrast between white light reflectance and fluorescence.

CC(=O)N[C@@H](CO)C(=O)NCC(=O)N[C@@H](CCC(N)=O)C(=O)N[C@H](C(=O)N1CCC[C@H]1C(=O)N[C@@H](Cc1c[nH]c2ccccc12)C(=O)N[C@@H](CCC(=O)O)C(=O)N[C@@H](CCC(=O)O)C(=O)N1CCC[C@H]1C(=O)N[C@@H](Cc1ccc(O)cc1)C(=O)N[C@@H](Cc1ccc(O)cc1)C(=O)N[C@H](C(=O)N[C@H](C(=O)N[C@@H](CCCCN)C(=O)N[C@@H](CCCCN)C(=O)N[C@@H](CO)C(=O)N[C@@H](CO)C(=O)NCC(=O)NCC(=O)N[C@@H](CSC1CC(=O)N(c2ccc3c(c2)C(=O)OC32c3ccc(O)cc3Oc3cc(O)ccc32)C1=O)C(N)=O)C(C)C)C(C)C)C(C)C (stereo partly drawn) [FAM-HNP401] (Ac-SGQVPWEEPYYVVKKSSGGC(Fluorescein(5-Mal))-NH2; N-terminus and C-terminus assumed)
signal intensity for in-vivo binding to mouse sciatic nerve compared to FAM-NP41: 2.3 × | sciatic nerve fluorescent intensity compared to NP41 (2 h post injection): 2.3 fold | nerve to surrounding muscle contrast (mouse thigh): 5.79±0.81
